Test results from publication PMC10056008 (Pharmaceuticals, 2023).
Read-outs that look alike come from different tables or passages of the source. One block for each molecule: values may come before it.

Assays:
[1] = Pharmacokinetics of dabigatran etexilate, dabigatran and dabigatran acylglucuronide in plasma after 150 mg dabigatran etexilate with or without simvastatin; type: in vivo, human
Protocol: An open-label, two-period, single sequence clinical study was conducted. After an overnight fast and drinking 200 mL of water one hour before drug administration, eligible subjects were administered with a capsule of dabigatran etexilate 150 mg ([…]®) on the first day of the study. Blood samples for pharmacokinetic and pharmacodynamic analyses were obtained using EDTA tubes and citrate tubes, respectively. […] Subjects remained at fasting stage until 4 h after the administration. […] To ensure compliance, subjects visited the study site for every drug administration. […] Blood samples were obtained at the same time point scheduled as the first day of the study. Adverse events were collected during the entire study period. This study was conducted in accordance with the Declaration of Helsinki, good clinical practice, and local regulation. The study was approved by the Institutional Review Board at Korea University Guro Hospital (2018GR0336, date of approval: 11 October 2018) and registered at ClinicalTrials.gov (NCT03728101). Separate plasma samples were kept frozen below -70 °C until analysis. Plasma concentrations of dabigatran etexilate, dabigatran, and dabigatran acylglucuronide were quantified using a high-performance liquid chromatography (Nanospace series SI-2, Shiseido Co., Ltd., Tokyo, Japan) coupled with tandem mass spectrometry (API4000, AB SCIEX LLC, Framingham, MA, USA) method. The method was validated in terms of selectivity, linearity, precision, accuracy, recovery, matrix effect, and stability prior to the analysis. In brief, 100 μL of plasma samples were deproteinized using 400 μL of acetonitrile and centrifuged at 13,000× g for 20 min. Dabigatran-d3 was used as an internal standard. The supernatants were evaporated and then dissolved in a 300 μL mobile phase consisting of acetonitrile and 10 mM ammonium formate (215:85, v/v). These samples were injected onto an Atlantis HILIC SilicaTM column (2.1 mm × 150 mm, 3 μm, Waters, Milford, MA, USA) at a flow rate of 0.3 mL/min. The mass spectrometer equipped with an electrospray ionization source was operated in a positive ion mode. Selected ion pairs of m/z 629.464→290.100 for dabigatran etexilate, m/z 472.300→289.100 for dabigatran, m/z 648.382→289.100 for dabigatran acylglucuronide were detected. […] Pharmacokinetic parameters of dabigatran etexilate, dabigatran, and dabigatran acylglucuronide were derived from noncompartmental analysis using Phoenix Winnonlin® version 8.3 (Certara, Princeton, NJ, USA). Observed values from individual time-concentration profiles were used for Cmax and Tmax. Area under the time-concentration curve (AUC) was calculated using linear-up log-down trapezoidal rule. The AUC from 0 h to infinity (AUCinf) was calculated as follows: AUCinf = AUC + Ct/ke, where Ct was the last plasma concentration and ke was the elimination rate constant. […] Mean residence time (MRT) was calculated as area under the moment curve from time of dosing to the last measurable concentration divided by AUClast. All statistical analyses were performed using SAS® version 9.4 (SAS Institute Inc., Cary, NC, USA). Descriptive statistics were used to summarize demographic, pharmacokinetic, and pharmacodynamic data. A linear mixed effects model was used to compare Cmax, AUClast, and AUCinf between two treatment periods.

coagulation = experiment: Coagulation assay (aPTT, PT, dPT, TT, fibrinogen) in plasma of dosed subjects; type: in vivo, human; settings: after administration of dabigatran etexilate
Protocol: An open-label, two-period, single sequence clinical study was conducted. After an overnight fast and drinking 200 mL of water one hour before drug administration, eligible subjects were administered with a capsule of dabigatran etexilate 150 mg ([…]®) on the first day of the study. Blood samples for pharmacokinetic and pharmacodynamic analyses were obtained using EDTA tubes and citrate tubes, respectively. […] Subjects remained at fasting stage until 4 h after the administration. […] To ensure compliance, subjects visited the study site for every drug administration. […] Blood samples were obtained at the same time point scheduled as the first day of the study. Adverse events were collected during the entire study period. This study was conducted in accordance with the Declaration of Helsinki, good clinical practice, and local regulation. The study was approved by the Institutional Review Board at Korea University Guro Hospital (2018GR0336, date of approval: 11 October 2018) and registered at ClinicalTrials.gov (NCT03728101). Anticoagulant assays of aPTT, PT, dPT, TT, and fibrinogen were measured using STA® Compact Max (Stago, Asnieres, France) according to the manufacturer's instructions. […] To measure aPTT, 50 μL of plasma sample was placed in a cuvette in the presence of STA®-PTT (50 μL) and 50 μL of 0.025 M CaCl2. For fibrinogen, 7.5 μL of plasma which was automatically diluted with Owren-Koller buffer was placed into a cuvette and then 50 μL of […] was added. For pharmacodynamic assessment, Phoenix Winnonlin® version 8.3 (Pharsight, Mountain View, CA, USA) was used to calculate AUEC with the linear trapezoidal method and Rmax was directly determined from individual profiles.

[2] = Adverse events, vital signs, clinical laboratory tests, electrocardiogram; type: in vivo, human; settings: 12 healthy subjects; except one subject with mild pharyngitis, which resolved
Protocol: An open-label, two-period, single sequence clinical study was conducted. After an overnight fast and drinking 200 mL of water one hour before drug administration, eligible subjects were administered with a capsule of dabigatran etexilate 150 mg ([…]®) on the first day of the study. Blood samples for pharmacokinetic and pharmacodynamic analyses were obtained using EDTA tubes and citrate tubes, respectively. […] Subjects remained at fasting stage until 4 h after the administration. […] To ensure compliance, subjects visited the study site for every drug administration. […] Blood samples were obtained at the same time point scheduled as the first day of the study. Adverse events were collected during the entire study period. This study was conducted in accordance with the Declaration of Helsinki, good clinical practice, and local regulation.

[3] = cited from earlier work
[4] = co-administered with simvastatin vs alone
[5] = human, oral, 150 mg dabigatran etexilate alone, plasma, mean (SD)

- AUCinf ([1]; human, in vivo, 150 mg): 1576.5 (1154.0) h∙ng/mL
- AUClast ([1]; human, in vivo, 150 mg): 1480.1 (1090.5) h∙ng/mL
- CL/F ([1]; human, in vivo, 150 mg): 176.8 (161.8) L/h
- Cmax ([1]; human, in vivo, 150 mg): 266.8 (187.1) ng/mL
- MRT ([1]; human, in vivo, 150 mg): 6.8 (0.9) h
- Tmax ([1]; human, in vivo, 150 mg): 2 (1.5–4) h
- t1/2 ([1]; human, in vivo, 150 mg): 6.4 (1.9) h
SMILES: Cn1c(CNc2ccc(C(=N)N)cc2)nc2cc(C(=O)N(CCC(=O)OC3O[C@H](C(=O)O)[C@@H](O)[C@H](O)[C@H]3O)c3ccccn3)ccc21 (stereo partly shown) [Dabigatran acylglucuronide]

- CL/F ([1]; 150 mg dabigatran etexilate alone, mean (SD)): 12,208.4 (16,447.7) L/h
- CL/F ([1]; co-administered with simvastatin 40 mg once daily, day 7, mean (SD)): 5235.1 (2729.4) L/h
- AUClast with simvastatin as % of value when administered alone [1, 4]: 147%
- Cmax with simvastatin as % of value when administered alone [1, 4]: 138%
- increase of AUClast after simvastatin co-administration ([1]; compared to dabigatran administered alone): 47%
- AUC(0-inf) [1, 5]: 33.7 ng·h/mL
- AUC(0-t) [1, 5]: 26.1 ng·h/mL
- half-life ([1]; human, plasma, oral, 150 mg dabigatran etexilate alone, mean (SD)): 3.4 h
- Cmax ([1]; human, plasma, oral, 150 mg dabigatran etexilate alone, mean (SD), read-out: Cmax): 24.5 ng/mL
- MRT ([1]; human, plasma, oral, 150 mg dabigatran etexilate alone, mean (SD), read-out: MRT): 1.9 h
- Tmax ([1]; human, plasma, oral, 150 mg dabigatran etexilate alone, median (min–max), read-out: Tmax): 1 h
SMILES: CCCCCCOC(=O)NC(=N)c1ccc(NCc2nc3cc(C(=O)N(CCC(=O)OCC)c4ccccn4)ccc3n2C)cc1 [Dabigatran etexilate]
- time of highest mean value of aPTT, PT, dPT and TT (coagulation): 2 to 4 h
- adverse events, vital signs, clinical laboratory tests, electrocardiogram [2]: no adverse events or clinically significant changes
- absolute bioavailability [3]: 7%
- increase in exposure in mild renal impairment patients vs healthy subjects ([3]; single dose): 1.5 times
